The source of these data is article PMC1950546 (Nucleic Acids Research, 2007).

One test relates to PrrC. The settings on record: stated in the introduction; cited from earlier work.
Test [1] addresses T1, PrrC anticodon nuclease (ACNase), His6-tagged D222E mutant (Escherichia coli, UniProt P17223, D222E).
T1 sequence (P17223 1-396 D222E): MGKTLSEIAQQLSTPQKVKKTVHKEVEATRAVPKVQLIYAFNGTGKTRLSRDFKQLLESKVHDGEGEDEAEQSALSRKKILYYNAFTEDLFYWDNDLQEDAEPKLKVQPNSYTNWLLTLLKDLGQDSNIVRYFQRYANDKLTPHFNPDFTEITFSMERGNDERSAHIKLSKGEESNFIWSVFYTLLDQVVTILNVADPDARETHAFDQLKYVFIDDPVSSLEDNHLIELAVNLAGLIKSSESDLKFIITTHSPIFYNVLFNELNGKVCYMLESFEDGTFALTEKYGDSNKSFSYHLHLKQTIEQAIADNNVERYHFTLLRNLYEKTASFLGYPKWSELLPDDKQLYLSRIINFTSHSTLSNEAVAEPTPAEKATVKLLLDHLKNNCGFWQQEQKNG
Description: ACNase assay: inhibition of PrrC-catalyzed cleavage of tRNA^Lys or ASL analogs. The format is biochemical.

Where a SMILES comes first, the peptide text is derived from it.

As for `Nc1nc2c(ncn2[C@@H]2O[C@H](COP(=O)(O)OP(=O)(O)OP(=O)(O)O)[C@@H](O)[C@H]2O)c(=O)[nH]1` [GTP], in the test with PrrC, the “Affinity for PrrC (range)” value is “mM-range”. For `Nc1ncnc2c1ncn2[C@@H]1O[C@H](COP(=O)(O)OP(=O)(O)OP(=O)(O)O)[C@@H](O)[C@H]1O` [ATP], the “Affinity for PrrC (range)” value in the test on PrrC is “mM-range”.

Turning to `CC(=O)N[C@@H](CCCCN)C(=O)N[C@@H](Cc1ccc(O)cc1)C(=O)NCC(=O)N[C@@H](CC(=O)O)C(=O)N[C@@H](CO)C(=O)N[C@@H](CC(N)=O)C(=O)N[C@@H](CCCCN)C(=O)N[C@@H](CO)C(=O)N[C@@H](Cc1ccccc1)C(=O)N[C@@H](CO)C(=O)N[C@@H](Cc1ccc(O)cc1)C(N)=O` [LARP, Ac-KYGDSNKSFSY-NH2] (Ac-KYGDSNKSFSY-NH2), in test [1], the IC50 is approximately 100 µM.
